16 compounds from ChEMBL document CHEMBL2150912, “Discovery of novel dihydroimidazothiazole derivatives as p53-MDM2 protein-protein interaction inhibitors: synthesis, biological evaluation and structure-activity relationships” (Bioorg Med Chem Lett, 2012) can be followed below.

For this assay, the target named is E3 ubiquitin-protein ligase Mdm2 (Homo sapiens, UniProt Q00987). The assay can be described thus: Inhibition of GST-tagged MDM2 binding to p53 by ELISA. For orientation: An ELISA detects its analyte on a solid surface through an enzyme-linked reagent.
E3 ubiquitin-protein ligase Mdm2, sequence (Q00987 whole entry): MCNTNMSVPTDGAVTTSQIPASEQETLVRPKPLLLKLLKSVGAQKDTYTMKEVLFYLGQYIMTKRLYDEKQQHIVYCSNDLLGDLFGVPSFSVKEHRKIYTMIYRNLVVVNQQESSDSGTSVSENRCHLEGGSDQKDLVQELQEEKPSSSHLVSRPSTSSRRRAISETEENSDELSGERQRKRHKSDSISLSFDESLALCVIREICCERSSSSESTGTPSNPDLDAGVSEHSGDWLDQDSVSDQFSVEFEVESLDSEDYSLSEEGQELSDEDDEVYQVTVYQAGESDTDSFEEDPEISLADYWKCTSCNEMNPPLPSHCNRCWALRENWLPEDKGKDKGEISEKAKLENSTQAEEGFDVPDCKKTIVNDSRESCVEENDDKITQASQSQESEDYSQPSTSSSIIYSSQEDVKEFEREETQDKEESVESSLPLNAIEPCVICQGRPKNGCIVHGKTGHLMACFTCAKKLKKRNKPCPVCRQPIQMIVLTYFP
For orientation: IC50 means the concentration at which inhibition is half-maximal. Read a low IC50 as inhibition by little substance. For the compound `CCC1=C(C(=O)N2CCNC(=O)C2)SC2=N[C@@H](c3ccc(Cl)cc3)[C@@H](c3ccc(Cl)cc3)N21` (racemic), the IC50 amounted to 1800 nM.

As for `CC(=O)N1CCN(C(=O)C2=C(C(C)C)N3C(=N[C@@H](c4ccc(Cl)cc4)[C@H]3c3ccc(Cl)cc3)S2)CC1` (racemic), the concentration for half-maximal inhibition (IC50) was 840 nM.

For `CC(C)(C)C1=C(C(=O)N2CCNC(=O)C2)SC2=N[C@@H](c3ccc(Cl)cc3)[C@@H](c3ccc(Cl)cc3)N21` (racemic), the 50% inhibitory concentration (IC50) was 3000 nM.

Compound `CC(C)C1=C(C(=O)N2CCOCC2)SC2=N[C@@H](c3ccc(Cl)cc3)[C@@H](c3ccc(Cl)cc3)N21` (racemic) yielded a concentration for half-maximal inhibition (IC50) of 340 nM.

Regarding `CC(C)C1=C(C(=O)N2CCNC(=O)CC2)SC2=N[C@@H](c3ccc(Cl)cc3)[C@@H](c3ccc(Cl)cc3)N21` (racemic), the IC50 came to 1100 nM.

Turning to `CC(C)C1=C(C(=O)N2CCNC(=O)C2)SC2=N[C@@H](c3ccc(Cl)cc3)[C@@H](c3ccc(Cl)cc3)N21` (racemic), the 50% inhibitory concentration (IC50) was 260 nM.

The compound `CC(C)C1=C(C(=O)N2CCC(C(=O)N(C)C)CC2)SC2=N[C@@H](c3ccc(Cl)cc3)[C@@H](c3ccc(Cl)cc3)N21` (racemic) yielded a half-maximal inhibitory concentration (IC50) of 4400 nM.

Regarding `CCCC1=C(C(=O)N2CCNC(=O)C2)SC2=N[C@@H](c3ccc(Cl)cc3)[C@@H](c3ccc(Cl)cc3)N21` (racemic), the IC50 turned out to be 3100 nM.

As to `CC(C)C1=C(C(=O)N2CCN(CCO)CC2)SC2=N[C@@H](c3ccc(Cl)cc3)[C@@H](c3ccc(Cl)cc3)N21` (racemic), the half-inhibitory concentration (IC50) came out at 1800 nM.

Compound `O=C1CN(C(=O)C2=C(C3CC3)N3C(=N[C@@H](c4ccc(Cl)cc4)[C@H]3c3ccc(Cl)cc3)S2)CCN1` (racemic) returned an IC50 of 9500 nM.

In turn, `CC(C)C1=C(C(=O)N2CCN(C)CC2)SC2=N[C@@H](c3ccc(Cl)cc3)[C@@H](c3ccc(Cl)cc3)N21` (racemic) displayed an IC50 of 1200 nM.

Regarding `CC(C)C1=C(C(=O)N2CCNC(=O)C2)SC2=NC(c3ccc(Cl)cc3)C(c3ccc(Cl)cc3)N21` (single isomer, unassigned; (-)), the 50% inhibitory concentration (IC50) is 11900 nM.

In turn, `CC(C)C1=C(C(=O)N2C[C@@H](C)N[C@@H](C)C2)SC2=N[C@@H](c3ccc(Cl)cc3)[C@@H](c3ccc(Cl)cc3)N21` (racemic) yielded a half-maximal inhibitory concentration (IC50) of 140 nM.

With `CC1=C(C(=O)N2CCNC(=O)C2)SC2=N[C@@H](c3ccc(Cl)cc3)[C@@H](c3ccc(Cl)cc3)N21` (racemic), the IC50 is 2700 nM.

On to `COCC1=C(C(=O)N2CCNC(=O)C2)SC2=N[C@@H](c3ccc(Cl)cc3)[C@@H](c3ccc(Cl)cc3)N21` (racemic), for which the IC50 was found to be 7100 nM.

On to `CC(C)C1=C(C(=O)N2CCNC(=O)C2)SC2=NC(c3ccc(Cl)cc3)C(c3ccc(Cl)cc3)N21` (single isomer, unassigned; (+)), for which the IC50 came out at 160 nM.
